# Counter-ions that a name gives are not always drawn.
# Key:
# CHIKV replicon = assay: microbe, parasite or virus in culture; assay type: cell-based, Chikungunya virus (CHIKV)
Compound,CHIKV replicon % left (CHIKV replicon),"SFV replication % left (surviving fraction, remaining percentage of SFV replication) (SFV-Rluc)"
CC(Cc1ccc(O)cc1)NCC(O)c1cc(O)cc(O)c1 (centres unmarked) [Fenoterol hydrobromide],88.4%,106.6%
COc1cc(/C=C/C(=O)O)ccc1O [Ferulic acid],55.8%,63.4%
O=c1cc(-c2ccccc2)oc2ccccc12 [Flavone],39.4%,52.2%
O=C(O)/C=C\C(=O)O.O=C(O)/C=C\C(=O)O.OCCN1CCN(CCCN2c3ccccc3Sc3ccc(C(F)(F)F)cc32)CC1 [Fluphenatzinemaleate],104.3%,98.9%
Nc1nc(=O)c2nc(CNc3ccc(C(=O)N[C@@H](CCC(=O)O)C(=O)O)cc3)cnc2[nH]1 [Folic acid],78.1%,100.0%
COc1cc2ccc(=O)oc2c(O)c1O [Fraxetin],95.4%,103.6%
COc1cc2ccc(=O)oc2c(O)c1OC [Fraxidin],104.3%,77.8%
O=C(O)c1cc(O)c(O)c(O)c1 [Gallic acid],88.9%,148.8%
O=c1c(-c2ccc(O)cc2)coc2cc(O)cc(O)c12 [Genistein],62.1%,45.6%
C[C@]12CC[C@H](O)C[C@H]1CC[C@@H]1[C@@H]2CC[C@]2(C)[C@@H](C3=CC(=O)OC3)[C@@H](O)C[C@]12O [Gitoxigenin],81.4%,102.7%
O=c1c(O)c(-c2ccc(O)c(O)c2)oc2c(O[C@@H]3O[C@H](CO)[C@@H](O)[C@H](O)[C@H]3O)c(O)cc(O)c12 [Gossypin],104.3%,105.8%
COc1ccccc1OCC(O)CO (centres unmarked) [Guaifenesin],82.7%,124.5%
O=C(OC[C@H]1OC(O)[C@@](O)(COC(=O)c2cc(O)c(O)c(O)c2)[C@@H]1O)c1cc(O)c(O)c(O)c1 (some centres unmarked) [Hamamelitannin],40.1%,14.7%
COc1ccc2ccc(=O)oc2c1 [Herniarin],102.2%,53.2%
COc1ccc([C@@H]2CC(=O)c3c(O)cc(O[C@@H]4O[C@H](CO[C@@H]5O[C@@H](C)[C@H](O)[C@@H](O)[C@H]5O)[C@@H](O)[C@H](O)[C@H]4O)cc3O2)cc1O [Hesperidin],102.2%,77.7%
CN1C(=O)NC(=O)C(C)(C2=CCCCC2)C1=O (centres unmarked) [Hexobarbital],98.2%,121.3%
Oc1ccc(C(O)CNCCCCCCNCC(O)c2ccc(O)c(O)c2)cc1O (centres unmarked) [Hexoprenaline],79.1%,124.9%
NCCCS(=O)(=O)O [Homotaurine],89.2%,118.7%
NS(=O)(=O)c1cc2c(cc1Cl)NCNS2(=O)=O [Hydrochlorothiazide],70.2%,121.2%
CC(=O)OCC(=O)[C@@]1(O)CC[C@H]2[C@@H]3CCC4=CC(=O)CC[C@]4(C)[C@H]3[C@@H](O)C[C@@]21C [Hydrocortisone acetate],72.1%,116.8%
Oc1ccc(O)cc1 [Hydroquinone],72.9%,16.9%
CCN(CCO)CCCC(C)Nc1ccnc2cc(Cl)ccc12 (centres unmarked) [Hydroxychloroquine sulfate],100.1%,128.9%
OCCOCCN1CCN(C(c2ccccc2)c2ccc(Cl)cc2)CC1 (centres unmarked) [Hydroxyzine hydrochloride],100.5%,98.3%
CC(C)(C)NC[C@H](O)COc1cccc2c1CCCC2=O [I-Bunolol],105.4%,59.6%
CC(C)Cc1ccc(CC(=O)O)cc1 [Ibufenac],78.9%,102.2%
CC(C)Cc1ccc(C(C)C(=O)O)cc1 (centres unmarked) [Ibuprofen],100.5%,92.8%
O[C@H]1[C@H](O)[C@@H](O)[C@H](O)[C@@H](O)[C@H]1O [Inositol],89.5%,106.0%
CCC(NC(C)C)C(O)c1ccc(O)c(O)c1 (centres unmarked) [Isoetharine],100.4%,90.7%

Compound,CHIKV replicon % left (CHIKV replicon),"SFV replication % left (surviving fraction, remaining percentage of SFV replication) (SFV-Rluc)"
CC(C)OC(=O)c1cc(O)c(O)c(O)c1 [Isopropyl gallate],79.3%,124.0%
COc1cc(-c2oc3cc(O)cc(O)c3c(=O)c2O)ccc1O [Isorhamnetin],19.3%,28.9%
COc1cc2oc(=O)ccc2cc1O [Isoscopoletin],99.4%,120.6%
O=c1c(O)c(-c2ccc(O)cc2)oc2cc(O)cc(O)c12 [Kaempferol],11.5%,2.9%
COc1c2occc2c(OC)c2c(=O)cc(C)oc12 [Khellin],95.4%,120.6%
C[C@](N)(Cc1ccc(O)c(O)c1)C(=O)O [L-Methyldopa],70.2%,99.1%
CNC[C@H](O)c1cccc(O)c1.Cl [L-Phenylephrine hydrochloride],104.1%,85.1%
O=C1O[C@H]([C@@H](O)CO)C(O)=C1O [L-ascorbic acid],106.1%,81.4%
CC(CCc1ccccc1)NCC(O)c1ccc(O)c(C(N)=O)c1 (centres unmarked) [Labetalol hydrochloride],100.1%,72.5%
CCCCCCCCCCCCOC(=O)c1cc(O)c(O)c(O)c1 [Lauryl gallate],6.1%,12.3%
Oc1cc(O)c2c(c1)OC(c1ccc(O)c(O)c1)C(O)C2O (centres unmarked) [Leucocyanidin],84.1%,136.3%
O=C1Nc2ccc(Cl)cc2C(c2ccccc2Cl)=NC1O (centres unmarked) [Lorazepam],104.9%,98.2%
O=c1cc(-c2ccc(O)c(O)c2)oc2cc(O[C@@H]3O[C@H](CO)[C@@H](O)[C@H](O)[C@H]3O)cc(O)c12 [Luteolin-7-glucoside],54.4%,17.8%
O=c1cc(-c2ccc(O)c(O)c2)oc2cc(O)cc(O)c12 [Luteolin],95.0%,71.3%
COc1cc(-c2[o+]c3cc(O)cc(O[C@@H]4O[C@H](CO)[C@@H](O)[C@H](O)[C@H]4O)c3cc2O[C@@H]2O[C@H](CO)[C@@H](O)[C@H](O)[C@H]2O)cc(OC)c1O.[Cl-] [Malvin chloride],72.3%,15.4%
CN1CCN=C(c2ccccc2)c2cc(Cl)ccc21 [Medazepam],101.7%,87.5%
Cc1cccc(Nc2ccccc2C(=O)O)c1C [Mefenamic acid],99.4%,103.5%
"CC1=CC(=O)c2ccccc2C1=O [Menadione [2-Methyl-1,4-naphtoquinone]]",31.1%,28.3%
CNC(C)(C)Cc1ccccc1 [Mephentermine sulfate],70.1%,81.8%
Cc1cccc(C)c1NC(=O)C1CCCCN1C (centres unmarked) [Mepivacaine hydrochloride],62.2%,74.9%
CN1CCCCC1CCN1c2ccccc2Sc2ccc([S+](C)[O-])cc21 (centres unmarked) [Mesoridazine besylate],100.5%,93.8%
Cc1c(N(C)CS(=O)(=O)[O-])c(=O)n(-c2ccccc2)n1C.[Na+] [Metamizol sodium],105.1%,86.0%
C[C@H](N)[C@H](O)c1cccc(O)c1.O=C(O)C(O)C(O)C(=O)O [Metaraminol bitartrate salt],69.1%,96.5%
COc1ccc(OC)c(C(O)C(C)N)c1 (centres unmarked) [Methoxamine hydrochloride],48.2%,98.4%
COC(=O)c1cc(O)c(O)c(O)c1 [Methyl gallate],100.7%,67.8%
COC(=O)c1ccc(O)cc1 [Methyl p-hydroxybenzoate],100.4%,69.3%
C[N+]1(C)[C@@H]2CC[C@H]1C[C@@H](OC(=O)C(CO)c1ccccc1)C2 (some centres unmarked) [Methylatropine bromide],54.9%,70.9%

# Reference: paper PMC3242765, “Inhibitors of Alphavirus Entry and Replication Identified with a Stable Chikungunya Replicon Cell Line and Virus-Based Assays” (PLoS ONE, 2011)
